# Read-outs that look alike come from different tables or passages of the source. No end group written: not given here.
# Molecular target: DR1 (DRB1*0101) (Homo sapiens, UniProt P01903+P01911, A100R/D57E/F55L/F60I/F76Y/I96L/L162R/M171V/P40L/Q125E/R42F/V115G/Y59C)
# Assay: biochemical
# Format: binding
Molecule,IC50,IC50 (read-out: DRB1*0101)
CWMIDSELRPRFREL [Peptide 9014.0223],433 nM,
ITDIGLARLLDIDET [Peptide 9014.0177],907 nM,
CWMIDSEVRPRFREL [Peptide 9014.0227],753 nM,
ETEHVEPLTPSGAMP [Peptide 9014.0143],62 nM,
ITDFGLARSLDIDET [Peptide 9014.0188],69 nM,
CC[C@H](C)[C@H](NC(=O)[C@@H](NC(=O)[C@H](CCCCN)NC(=O)[C@H](CC(C)C)NC(=O)[C@@H](NC(=O)[C@@H](NC(=O)[C@@H](N)CCCNC(=N)N)[C@@H](C)O)[C@@H](C)O)[C@@H](C)O)C(=O)N[C@H](C(=O)N[C@H](C(=O)N[C@@H](CO)C(=O)N[C@@H](C)C(=O)N[C@@H](CCC(=O)O)C(=O)N[C@@H](CC(C)C)C(=O)N1CCC[C@H]1C(=O)N[C@@H](CCCCN)C(=O)O)C(C)C)[C@@H](C)O [Peptide 9014.0058],308 nM,
KIFGSLNFLPESFDGDPA [Peptide 9014.0242],225 nM,
DMKLRLNASPETHLD [Peptide 9014.0120],902 nM,
KHFGSLAFLPESFDGDPA [Peptide 9014.0232],631 nM,
ETELVEPLFPSGAMP [Peptide 9014.0150],304 nM,
ETEWVEPLTPSGAMP [Peptide 9014.0147],24 nM,
DMKYRLPASPETHLD [Peptide 9014.0131],776 nM,
CWMIDSEARPRFREL [Peptide 9014.0219],55 nM,
CC(C)[C@H](NC(=O)[C@@H]1CCCN1C(=O)[C@H](CCCCN)NC(=O)[C@H](CO)NC(=O)[C@H](CC(N)=O)NC(=O)[C@H](CC(N)=O)NC(=O)[C@H](CO)NC(=O)[C@H](CO)NC(=O)[C@H](Cc1ccc(O)cc1)NC(=O)[C@H](CO)NC(=O)[C@@H]1CCCN1C(=O)[C@@H](N)CCCCN)C(=O)N[C@@H](CCC(=O)O)C(=O)N[C@@H](CC(=O)O)C(=O)N[C@@H](CCCCN)C(=O)O [Peptide 9014.0043],39 nM,
GTDMKLRLLASPETH [Peptide 9014.0100],13 nM,
ETELVEPLAPSGAMP [Peptide 9014.0149],45 nM,
CC[C@H](C)[C@H](NC(=O)[C@@H](NC(=O)[C@H](CCCCN)NC(=O)[C@H](Cc1ccccc1)NC(=O)[C@@H](NC(=O)[C@@H](NC(=O)[C@@H](N)CCCNC(=N)N)[C@@H](C)O)[C@@H](C)O)[C@@H](C)O)C(=O)N[C@H](C(=O)N[C@H](C(=O)N[C@@H](CO)C(=O)N[C@@H](C)C(=O)N[C@@H](CCC(=O)O)C(=O)N[C@@H](CC(C)C)C(=O)N1CCC[C@H]1C(=O)N[C@@H](CCCCN)C(=O)O)C(C)C)[C@@H](C)O [Peptide 9014.0054],55 nM,
KIFGSLTFLPESFDGDPA [Peptide 9014.0244],233 nM,
RTTVKTITLSAELPK [Peptide 9014.0065],721 nM,

Molecule,IC50,IC50 (read-out: DRB1*0101)
ETEKVEPLTPSGAMP [Peptide 9014.0145],21 nM,
ETEAVEPLTPSGAMP [Peptide 9014.0141],51 nM,
QNYIQNDTGFYTLHV [Peptide 9014.0077],454 nM,
CWMIDSESRPRFREL [Peptide 9014.0225],459 nM,
GTDMKLRLAASPETH [Peptide 9014.0096],22 nM,
KIFGSLLFLPESFDGDPA [Peptide 9014.0241],433 nM,
GTDYKLRLPASPETH [Peptide 9014.0095],594 nM,
DMKLRLLASPETHLD [Peptide 9014.0119],12 nM,
GTDMKLRLHASPETH [Peptide 9014.0098],823 nM,
CWMIDSEHRPRFREL [Peptide 9014.0221],868 nM,
ETELVEPLVPSGAMP [Peptide 9014.0156],85 nM,
"KIFGSLAFLPESHDGDPA [9014,0255]",813 nM,
KIFGSLAILPESFDGDPA [Peptide 9014.0248],382 nM,
GTDWKLRLPASPETH [Peptide 9014.0094],799 nM,
ETELVEPLIPSGAMP [Peptide 9014.0152],55 nM,
730.12 (Ac-AAAKATAAAAAA; also: non-natural residue (10)) [Peptide 730.12],,5000 nM
GTDMKLRLFASPETH [Peptide 9014.0097],170 nM,
ETELVEPLHPSGAMP [Peptide 9014.0151],31 nM,

# — US9340577B2, “HLA binding motifs and peptides and their uses” (priority 1992, dated 2016)
